The values that follow come from patent US6225345A, “Azahexane derivatives as substrate isosters of retroviral asparate proteases” (Novartis AG, priority 1995, dated 2001).

A short description of data set [1]: in vivo. The settings on record: mouse, po, 120 mg/kg.
Description: In order to determine their pharmacokinetics, the compounds of formula I are dissolved in dimethyl sulfoxide (DMSO) in a concentration of 240 mg/ml. The resulting solutions are diluted 1:20 (v/v) with 20% (w/v) aqueous hydroxypropyl-β-cyclodextrin solution in order to obtain a concentration of the test compound in question of 12 mg/ml. The resulting solution is treated briefly with ultrasound and administered orally to female BALB/c mice (Bomholt-garden, Copenhagen, Denmark) by artificial tube feeding at a dose of 120 mg/kg. At fixed times (for example 30, 60, 90, 120 min) after administration, mice are sacrificed and the plasma stored in heparinised test tubes. The blood is centrifuged (12,000×g, 5 min) and the plasma removed. The plasma is deproteinised by the addition of an equal volume of acetonitrile. The mixture is mixed using a vortex mixer and left to stand at room temperature for 20 to 30 minutes. The precipitate is pelleted by centrifugation (12,000×g, 5 min), and the concentration of the test compound is determined by reversed phase high performance liquid chromatography (HPLC).
The HPLC analysis of the samples obtained in accordance with the method described above is carried out on a 125×4.6 mm Nucleosil® C18 -column (reversed-phase material supplied by Macherey & Nagel, Duren, Germany, based on silica gel derivatised with carbon radicals having 18 carbon atoms), using a 2 cm long preliminary column of the same column material. The test is carried out with the following linear acetonitrile/water gradient (in each case in the presence of 0.05% trifluoroacetic acid): 20% acetonitrile to 100% acetonitrile for 20 min; then 5 min 100% acetonitrile; then returning to the initial conditions for 1 min and 4 min reequilibration. The flow rate is 1 ml/min. […] The test compound is detected by UV absorption measurement at 255 nm. Peaks are identified by the retention time and the UV spectrum between 205 and 400 nm. The concentrations are determined by the external standard method; the peak heights are obtained for determining the concentrations by comparison with standard curves.
Data set [2] addresses T1, HIV-1-protease (Human immunodeficiency virus type 1 group M subtype B, UniProt P04585).
T1 construct: made in house
Kind of data set: HIV-1-protease inhibition with icosapeptide substrate […] (HPLC). The data set is classed as biochemical. The settings on record: pH 6.0, 37° C., 1 hour, icosapeptide 122 μM. The procedure: The inhibitory action of the compounds of formula I on the proteolytic activity of HIV-1-protease can be shown, for example, analogously to the method described by A. D. Richards et al., J. Biol. Chem. 265(14), 7733-7736 (1990). In that method the inhibition of the action of HIV-1-protease (prepared in accordance with S. Billich et al., J. Biol. Chem. 263(34), 17905-17908 (1990)) is measured in the presence of the icosapeptide […] SEQ ID NO:1, a synthetic substrate of HIV-1-protease, prepared by peptide synthesis in accordance with known procedures, see J. Schneider et al., Cell 54, 363-368 (1988)), which contains as substrate analogue one of the cleavage sites of the gag-precursor protein (natural substrate of HIV-1-protease). That substrate and its cleavage products are analysed by high performance liquid chromatography (HPLC).
The test compound is dissolved in dimethyl sulfoxide. The enzymatic test is carried out by adding suitable dilutions of the inhibitor in 20 mM β-morpholinoethanesulfonic acid (MES) buffer pH 6.0 to the test mixture. That mixture consists of the above-mentioned iscosapeptide (122 μM) in 20 mM MES-buffer pH 6.0. 100 μl are used per test batch. The reaction is started by the addition of […] of HIV-1-protease solution and is stopped after one hours incubation at 37° C. by the addition of 10 μl of 0.3M HClO4. After centrifugation of the sample at 10,000×g for 5 minutes, […] of the resulting supernatant are applied to a 125×4.6 mm Nucleosil® C18-5m-HPLC column (reversed-phase material supplied by Macherey & Nagel, Duren, FRG, based on silica gel that has been charged with C18 alkyl chains). The uncleaved icosapeptide and its cleavage products are eluted from the column by means of the following gradient: 100% eluant 1→50% eluant 1+50% eluant 2 (eluant 1: 10% acetonitrile, 90% H2 O, 0.1% trifluoroacetic acid (TFA); eluant 2: 75% acetonitrile, 25% H2 O, 0.08% TFA) for 15 minutes, throughflow rate 1 ml/min. The quantification of the eluted peptide fragments is carried out by measuring the peak height of the cleavage product at 215 nm.
In the test system described above (with […]), SEQ ID NO:1 the following IC50 values are obtained for Examples 1 to 5: […]

Data set [3] concerns HIV-1/MN in MT-2-cells. Kind of data set: Protection of HIV-1/MN-infected MT-2-cells, reverse transcriptase activity. The class given is cell-based. As to conditions: Human immunodeficiency virus 1, MT2, 96 h; 90% reduction of RT activity; HIV-1-infected MT-2-cells; 4 days; read-out: ED90 (the source's name). The source says:
In a further test it can be shown that compounds of formula I protect cells normally infected by HIV from such an infection or at least slow down such an infection. For this test, MT-2-cells infected with HIV-1/MN are used. MT-2-cells have been transformed with a continuous producer of HTLV-1 (a virus causing leukaemia); they are therefore especially sensitive to the cytopathogenic effect of HIV. MT-2-cells can be obtained via the AIDS Research and Reference Reagent Program, Division of AIDS, NIAID, NIH from Dr. Douglas Richman (see J. Biol. Chem. 263, 5870-5875 (1988) and also Science 229, 563-566 (1985)). The MT-2-cells are cultured in RPMI 1640-medium (Gibco, Scotland; RPMI comprises an amino acid mixture without glutamine) supplemented with 10% heat-inactivated foetal calf serum, glutamine and standard antibiotics. In all cases the cells, and also the virus stock solution used for the infection (HIV-1/MN), are free of mycoplasms. The virus stock solution is prepared as a cell culture supernatant of the permanently infected cell line H9/HIV-1/MN, which can likewise be obtained via the AIDS Research and Reference Program, Division of AIDS, NIAID, NIH from Dr. Robert Gallo (see also Science 224, 500-503 (1984) and Science 226, 1165-1170 (1984)). The titre of the HIV-1/MN virus stock solution (determined by titration onto MT-2-cells) is 4.2×10^5 TCID50/ml (TCID50=Tissue Culture Infective Dose=dose that infects 50% of the MT-2-cells). In order to measure the infection-inhibiting action of the compounds of formula I, 50 μl of the test compound in question in culture medium and 2800 TCID50 of HIV-1/MN in 100 μl of culture medium are added to 2×10^4 exponentially growing MT-2-cells which have been applied in 50 μl of culture medium to 96-well microtitre plates (having a round base). After 4 days' incubation (at 37° C., 5% CO2) a 10 μl sample of the supernatant is taken from each well, transferred to a further 96-well microtitre plate and (if necessary) stored at -20° C. In order to measure the activity of the virus-associated reverse transcriptase, 30 μl of reverse transcriptase (RT) cocktail are added to each sample. The reverse transcriptase cocktail consists of 50 mM Tris (α,α,α-tris(hydroxymethyl)methylamine, Ultra pur, Merck, Germany) pH 7.8; 75 mM KCl, 2 mM dithiothreitol, 5 mM MgCl2; 0.1% Nonidet P40 (detergent; Sigma, Switzerland), 0.8 mM EDTA, 10 μg/ml Poly-A (Pharmacia, Uppsala, Sweden) and 0.16 μg/ml oligo(T) (=pdT(12-18), Pharmacia, Uppsala, Sweden) as "template primer"--if desired, the mixture is filtered through a […] Acrodisc filter (Gelman Sciences Inc., Ann Arbor, USA). It is stored at -20° C. Prior to the test, 0.1% (v/v) [alpha-^32 P]dTTP is added to aliquots of the solution in order to establish a final radioactivity of 10 μCi/ml.
After mixing, the plate is incubated for 2 hours at 37° C. 5 μl of the reaction mixture are transferred to DE81 paper (Whatman, one filter per well). The dried filters are washed three times for 5 minutes with 300 mM NaCl/25 mM trisodium citrate and then once with ethanol and again dried in the air. The radioactivity on the filters is measured in a Matrix Packard 96-well counter (Packard, Zurich, Switzerland). The ED90 values are calculated and are defined as the concentration of the test compound that reduces the RT activity by 90% in comparison with a control without test compound. […]

In data set [4] the test system is CD4-lymphocytes in the blood. As to conditions: AIDS patients, in words; cited from earlier work.
In data set [5] the test system is virus replication. The settings on record: in words; cited from earlier work.
In data set [6] the test system is HIV-protease. The settings on record: cited from earlier work.
For data set [7] the following is noted: in vivo, po; cited from earlier work.
For data set [8] the following is noted: in vivo; cited from earlier work.

`COC(=O)N[C@H](C(=O)N[C@@H](Cc1ccccc1)[C@@H](O)CN(Cc1ccc(-c2ccccc2)cc1)NC(=O)[C@@H](NC(=O)OC)C(C)(C)C)C(C)C` [Example 1, 1-(4-Biphenylyl)-2-N-(N-methoxycarbonyl-(L)-tert-leucyl)-amino-4(S)-hydroxy-5(S)-N-(N-methoxycarbonyl-(L)-valyl)-amino-6-phenyl-2-azahexane]: in data set [1], the concentration at 0.5 h stood at 6330 nM and the concentration at 1.5 h is 5350 nM. In data set [2], this compound showed an IC50 of 51 nM. Also, the EC90 in data set [3] turned out to be 3000 nM.

As to `COC(=O)N[C@H](C(=O)NN(Cc1ccc(-c2ccccc2)cc1)C[C@H](O)[C@H](Cc1ccccc1)NC(=O)[C@@H](NC(=O)OC)C(C)(C)C)C(C)C` [Example 2, 1-(4-Biphenylyl)-2-N-(N-methoxycarbonyl-(L)-valinyl)-amino-4(S)-hydroxy-5(S)-N-(N-methoxycarbonyl-(L)-tert-leucyl)-amino-6-phenyl-2-azahexane], in data set [1], the concentration at 0.5 h was determined as 640 nM and the concentration at 1.5 h was determined as 1110 nM. For the same compound, the IC50 in data set [2] turned out to be 85 nM. Also, the EC90 in data set [3] came to 3000 nM.

For the compound `COC(=O)N[C@H](C(=O)NN(Cc1ccc(-c2ccccc2C#N)cc1)C[C@H](O)[C@H](Cc1ccccc1)NC(=O)[C@@H](NC(=O)OC)C(C)(C)C)C(C)C` [Example 3, 1-[4-(2-Cyanophenyl)phenyl]-2-N-(N-methoxycarbonyl-(L)-valyl)-amino-4(S)-hydroxy-5(S)-N-(N-methoxycarbonyl-(L)-tert-leucyl)-amino-6-phenyl-2-azahexane], in data set [1], the concentration at 0.5 h came out at 1420 nM and the concentration at 1.5 h came to 1950 nM. In addition, the 50% inhibitory concentration (IC50) in data set [2] was 38 nM. In addition, the EC90 in data set [3] amounted to 10000 nM.

In the case of `COC(=O)N[C@H](C(=O)N[C@@H](Cc1ccccc1)[C@@H](O)CN(Cc1ccc(-c2ccccc2C#N)cc1)NC(=O)[C@@H](NC(=O)OC)C(C)(C)C)C(C)C` [Example 4, 1-[4-(2-Cyanophenyl)phenyl)-2-N-(N-methoxycarbonyl-(L)-tert-leucyl)-amino-4(S)-hydroxy-5(S)-N-(N-methoxycarbonyl-(L)-valyl)-amino-6-phenyl-2-azahexane], in data set [1], the concentration at 0.5 h amounted to 1680 nM and the concentration at 1.5 h came out at 1930 nM. In data set [2], this compound came in with a 50% inhibitory concentration (IC50) of 43 nM. Moreover, the EC90 in data set [3] is 3000 nM.

In data set [1], `COC(=O)N[C@H](C(=O)N[C@@H](Cc1ccccc1)[C@@H](O)CN(Cc1ccc(-c2ccccc2)cc1)NC(=O)[C@@H](NC(=O)OC)C(C)(C)C)C(C)(C)C` [Example 5, 1-(4-Biphenylyl)-4(S)-hydroxy-5(S)-2,5-bis[N-(N-methoxycarbonyl-(L)-tert-leucyl)-amino]-6-phenyl-2-azahexane] gave a concentration at 0.5 h of 5530 nM and a concentration at 1.5 h of 4910 nM. This compound also showed an IC50 in data set [2] of 58 nM. In addition, the EC90 in data set [3] came to 3000 nM.

On to `CC(C)(C)NC(=O)[C@@H]1C[C@@H]2CCCC[C@@H]2CN1C[C@@H](O)[C@H](Cc1ccccc1)NC(=O)[C@H](CC(N)=O)NC(=O)c1ccc2ccccc2n1` [Ro 31-8959, N-tert-butyl-decahydro-2-[2(R)-hydroxy-4-phenyl-3(S)-[[N-2-quinolyl-carbonyl-L-asparaginyl]amino]butyl]-(4aS,8aS)-isoquinoline-3(S)-carboxamide], for which the “surrogate-marker (titre of the CD4-lymphocytes)” value in data set [4] was “initial positive effects”. The “virus replication in cell experiments” value in data set [5] is “suppression of virus replication”. For the same compound, the “inhibitory action against HIV-protease in vitro” value in data set [6] is reported as “exhibits an inhibitory action”. In data set [7], the “blood levels in rodents” value is given as “blood levels that are still usable”. The “blood levels in humans” value in data set [8] is reported as “usable blood levels”.
